In the NIST ThermoML archive (doi:10.1021/acs.jced.7b00347):

Test: mn = molality of the nth substance listed, in mol/kg
Details: for surface tension liquid-gas: Ring tensiometer; for electrical conductivity: 100 kPa, Liquid, Alternating current cell with electrodes

CCCCCCCCCCCC[NH+](CCO)CC(C)O.[Cl-] (stereo not drawn) + O
Details | electrical conductivity [S/m] | surface tension liquid-gas [mN/m]
293.15 K, m1 = 1.54e-05 | 0.00031 | –
293.15 K, m1 = 1.543e-05 | – | 59.21
293.15 K, m1 = 3.087e-05 | – | 52.72
293.15 K, m1 = 3.859e-05 | – | 50.31
293.15 K, m1 = 3.95e-05 | 0.00039 | –
293.15 K, m1 = 6.35e-05 | 0.00047 | –
293.15 K, m1 = 7.717e-05 | – | 44.02
293.15 K, m1 = 8.75e-05 | 0.000551 | –
293.15 K, m1 = 0.0001116 | 0.000631 | –
293.15 K, m1 = 0.0001356 | 0.000711 | –
293.15 K, m1 = 0.0001544 | – | 37.72
293.15 K, m1 = 0.0001596 | 0.000791 | –
293.15 K, m1 = 0.0001837 | 0.000872 | –
293.15 K, m1 = 0.0002077 | 0.000952 | –
293.15 K, m1 = 0.0002315 | – | 34.11
293.15 K, m1 = 0.0002317 | 0.00103 | –
293.15 K, m1 = 0.0002558 | 0.00111 | –
293.15 K, m1 = 0.0002798 | 0.00119 | –
293.15 K, m1 = 0.0003038 | 0.00127 | –
293.15 K, m1 = 0.0003087 | – | 31.52
293.15 K, m1 = 0.0003279 | 0.00135 | –
293.15 K, m1 = 0.0003519 | 0.00144 | 30.47
293.15 K, m1 = 0.0003819 | 0.00148 | –
293.15 K, m1 = 0.0004119 | 0.00153 | –
293.15 K, m1 = 0.0004419 | 0.00159 | –
293.15 K, m1 = 0.0004719 | 0.00163 | –
293.15 K, m1 = 0.0005018 | 0.00169 | –
293.15 K, m1 = 0.0005318 | 0.00174 | –
293.15 K, m1 = 0.0005618 | 0.00179 | –
293.15 K, m1 = 0.0005918 | 0.00184 | –
293.15 K, m1 = 0.0006218 | 0.00189 | –
293.15 K, m1 = 0.0006518 | 0.00194 | –
293.15 K, m1 = 0.0006818 | 0.00199 | –
293.15 K, m1 = 0.0007118 | 0.00204 | –
293.15 K, m1 = 0.0007417 | 0.00209 | –
293.15 K, m1 = 0.0007717 | 0.00214 | 30.03
293.15 K, m1 = 0.001543 | – | 29.53
293.15 K, m1 = 0.002315 | – | 29.53
298.15 K, m1 = 1.54e-05 | 0.00041 | –
298.15 K, m1 = 1.543e-05 | – | 54.03
298.15 K, m1 = 3.087e-05 | – | 48.02
298.15 K, m1 = 3.51e-05 | 0.000488 | –
298.15 K, m1 = 3.859e-05 | – | 45.91
298.15 K, m1 = 5.47e-05 | 0.000565 | –
298.15 K, m1 = 7.43e-05 | 0.000643 | –
298.15 K, m1 = 7.717e-05 | – | 40
298.15 K, m1 = 9.39e-05 | 0.000721 | –
298.15 K, m1 = 0.0001136 | 0.000798 | –
298.15 K, m1 = 0.0001332 | 0.000876 | –
298.15 K, m1 = 0.0001528 | 0.000954 | –
298.15 K, m1 = 0.0001544 | – | 34.51
298.15 K, m1 = 0.0001724 | 0.00103 | –
298.15 K, m1 = 0.000192 | 0.00111 | –
298.15 K, m1 = 0.0002117 | 0.00119 | –
298.15 K, m1 = 0.0002313 | 0.00127 | –
298.15 K, m1 = 0.0002315 | – | 31.42
298.15 K, m1 = 0.0002509 | 0.00134 | –
298.15 K, m1 = 0.0002705 | 0.00142 | –
298.15 K, m1 = 0.0002902 | 0.0015 | –
298.15 K, m1 = 0.0002932 | – | 29.91
298.15 K, m1 = 0.0003155 | 0.00156 | –
298.15 K, m1 = 0.0003409 | 0.00161 | –
298.15 K, m1 = 0.0003662 | 0.00167 | –
298.15 K, m1 = 0.0003915 | 0.00173 | –
298.15 K, m1 = 0.0004169 | 0.00179 | –
298.15 K, m1 = 0.0004422 | 0.00185 | –
298.15 K, m1 = 0.0004676 | 0.0019 | –
298.15 K, m1 = 0.0004929 | 0.00196 | –
298.15 K, m1 = 0.0005183 | 0.00202 | –
298.15 K, m1 = 0.0005436 | 0.00208 | –
298.15 K, m1 = 0.000569 | 0.00213 | –
298.15 K, m1 = 0.0005943 | 0.00219 | –
298.15 K, m1 = 0.0006197 | 0.00225 | –
298.15 K, m1 = 0.000645 | 0.00231 | –
298.15 K, m1 = 0.0006703 | 0.00236 | –
298.15 K, m1 = 0.0006957 | 0.00242 | –
298.15 K, m1 = 0.000721 | 0.00248 | –
298.15 K, m1 = 0.0007464 | 0.00254 | –
298.15 K, m1 = 0.0007717 | 0.0026 | 29.14
298.15 K, m1 = 0.001543 | – | 28.62
298.15 K, m1 = 0.002315 | – | 28.22
298.15 K, m1 = 0.003087 | – | 28.01
303.15 K, m1 = 1.08e-05 | – | 52.51
303.15 K, m1 = 1.543e-05 | – | 49.91
303.15 K, m1 = 3.087e-05 | – | 44.82
